Measured values: patent publication US9428487B2, “Heteroaromatic amides and thioamides as pesticides” (Bayer Intellectual Property GmbH, priority 2008, dated 2016)

How the values were obtained:
[1] = Determination of log P values by HPLC on reversed-phase column (formic acid method); assay type: physicochemical; conditions: reversed-phase C 18, acidic range (pH 3.4), formic acid eluents, 55° C.; for chromatographic logP: reversed-phase HPLC column (C 18), pH 3.4, HPLC, read-out: logP (HCOOH); for logP (HCOOH): HPLC
Method: 1) Description of Method for Determining the Log P Values (Formic Acid Method)
The log P values reported in the table were determined according to EEC-Directive 79/831 Annex V.A8 by HPLC (High Performance Liquid Chromatography) on a reversed-phase column (C 18). […]
Eluent A: acetonitrile+1 ml of formic acid/liter. Eluent B: water+0.9 ml of formic acid/liter.
Gradient: from 10% eluent A/90% eluent B to 95% eluent A/5% eluent B in 4.25 min
The calibration was effected with unbranched alkan-2-ones (with 3 to 16 carbon atoms), whose log P values are known (determination of the log P values on the basis of the retention times by linear interpolation between two successive alkanones). The lambda-max values were determined with reference to the UV spectra from 200 nm to 400 nm in the maxima of the chromatographic signals.

[2] = system: green peach aphid (Myzus persicae); assay: Myzus test; assay type: in vivo; conditions: application rate 500 g/ha, spray on Chinese cabbage leaf slices, read-out: efficacy (aphids killed)
Method: • Solvent: 78.0 parts by weight of acetone • 1.5 parts by weight of dimethylformamide • Emulsifier: 0.5 part by weight of alkylaryl polyglycol ether
To produce an appropriate active ingredient formulation, 1 part by weight of active ingredient is mixed with the amounts of solvent and emulsifier specified and the concentrate is diluted to the desired concentration with emulsifier-containing water.
Chinese cabbage leaf slices (Brassica pekinensis) infested by all stages of the green peach aphid (Myzus persicae) are sprayed with an active ingredient formulation of the desired concentration.
After the desired time, the efficacy in % is determined 100% means that all aphids have been killed; 0% means that no aphids have been killed.

Row | chromatographic logP [1] | logP (HCOOH) [1] | SMILES | pest or weed control at 500 g/ha [2]
1 | 1.97 | – | Cc1nc(Cl)sc1C(=O)NCC(F)(F)F | –
2 | 0.42 | – | O=C(O)c1cnc(-c2cccnc2)s1 [2-pyridin-3-ylthiazole-5-carboxylic acid] | –
3 | 2.15 | – | Cc1nc(-c2cncc(F)c2)sc1C(=O)NCC(F)(F)F [Compound 9] | ≥ 70%
4 | 1.39 | – | Cc1nc(-c2cncc(F)c2)sc1C(=O)NCc1ncccn1 [Compound 10] | ≥ 70%
5 | 1.24 | – | Cn1nc(-c2cncc(F)c2)cc1C(=O)NCc1ncccn1 [Compound 11] | ≥ 70%
6 | 1.89 | – | Cn1nc(-c2cncc(F)c2)cc1C(=O)NCC(C)(F)F [Compound 12] | ≥ 70%
7 | 1.75 | – | C=CN(Cc1ncccn1)C(=O)c1cc(-c2cncc(F)c2)nn1C [Compound 13] | ≥ 70%
8 | 2.5 | – | Cc1nc(-c2cncc(Cl)c2)sc1C(=O)NCC(F)(F)F [Compound 14] | ≥ 70%
9 | 1.69 | – | Cc1nc(-c2cncc(Cl)c2)sc1C(=O)NCc1ncccn1 [Compound 15] | ≥ 70%
10 | 2.61 | – | Cc1nc(-c2cncc(Br)c2)sc1C(=O)NCC(F)(F)F [Compound 16] | ≥ 70%
11 | 1.8 | – | Cc1nc(-c2cncc(Cl)c2)sc1C(=O)N(C)C [Compound 17] | –
12 | 1.87 | – | Cc1nc(-c2cncc(I)c2)sc1C(=O)NCc1ncccn1 [Compound 18] | –
13 | 1.49 | – | Cc1nc(-c2cncc(F)c2)sc1C(=O)N(C)C [Compound 19] | –
14 | 2.75 | – | Cc1nc(-c2cncc(I)c2)sc1C(=O)NCC(F)(F)F [Compound 20] | –
15 | 1.72 | – | Cc1nc(-c2cncnc2)sc1C(=O)N(C)CC(F)(F)F [Compound 21] | ≥ 70%
16 | 1.05 | – | Cc1nc(-c2cncnc2)sc1C(=O)NCc1ncccn1 [Compound 22] | ≥ 70%
17 | 1 | – | Cc1nc(-c2cncnc2)sc1C(=O)N(C)C [Compound 23] | –
18 | 0.91 | – | Cn1nc(-c2cccnc2)cc1C(=O)NCC(C)(F)F [Compound 24] | ≥ 70%
19 | 0.65 | – | Cn1nc(-c2cccnc2)cc1C(=O)NCC(F)F [Compound 25] | ≥ 70%
20 | 0.54 | – | Cc1nc(CNC(=O)c2cc(-c3cccnc3)nn2C)no1 [Compound 26] | ≥ 70%
21 | 0.99 | – | CN(CC(C)(F)F)C(=O)c1cc(-c2cccnc2)nn1C [Compound 27] | ≥ 70%
22 | 0.25 | – | Cn1nc(-c2cccnc2)cc1C(=O)NCc1ncccn1 [Compound 28] | ≥ 70%
23 | 0.56 | – | Cn1nc(-c2cccnc2)cc1C(=O)NCc1ccon1 [Compound 29] | ≥ 70%

Row | chromatographic logP [1] | logP (HCOOH) [1] | SMILES | pest or weed control at 500 g/ha [2]
24 | 1.09 | – | CN(CC(F)(F)F)C(=O)c1cc(-c2cccnc2)nn1C [Compound 30] | ≥ 70%
25 | 1.04 | – | Cn1nc(-c2cccnc2)cc1C(=O)NCC(F)(F)F [Compound 31] | ≥ 70%
26 | 1.53 | – | O=C(NCC(F)(F)F)c1nnc(-c2cccnc2)s1 [Compound 32] | ≥ 70%
27 | 0.72 | – | O=C(NCC(F)(F)F)c1cc(-c2cccnc2)n[nH]1 [Compound 33] | ≥ 70%
28 | 1.84 | – | Cc1nc(-c2cccnc2)sc1C(=O)NC1(C(F)(F)F)CC1 [Compound 34] | ≥ 70%
29 | 1.65 | – | Cc1nc(-c2cccnc2)sc1C(=O)N(C)CC(C)(F)F [Compound 35] | ≥ 70%
30 | 1.59 | – | Cc1nc(-c2cccnc2)sc1C(=O)NCC(C)(F)F [Compound 36] | ≥ 70%
31 | 1.24 | – | Cc1nc(-c2cccnc2)sc1C(=O)NC(C)c1ncccn1 (stereo not drawn) [Compound 37] | ≥ 70%
32 | 1.21 | – | Cc1nc(CNC(=O)c2sc(-c3cccnc3)nc2C)no1 [Compound 38] | ≥ 70%
33 | 1.63 | – | Cc1nc(-c2cccnc2)sc1C(=O)NCC(F)(F)F [Compound 39] | ≥ 70%
34 | 1.05 | – | Cc1nc(-c2cccnc2)sc1C(=O)NCc1ncccn1 [Compound 40] | ≥ 70%
35 | 1.48 | – | Cc1nc(-c2cccnc2)sc1C(=O)N(C)CC(F)F [Compound 41] | ≥ 70%
36 | 1.81 | – | Cc1nc(-c2cccnc2)sc1C(=O)N(C)CC(F)(F)F [Compound 42] | ≥ 70%
37 | 1.69 | – | Cc1nc(-c2cccnc2)sc1C(=O)N(C)CC(F)(F)C(F)F [Compound 43] | ≥ 70%
38 | 1.54 | – | CSCCNC(=O)c1sc(-c2cccnc2)nc1C [Compound 44] | ≥ 70%
39 | 2.21 | – | CSCC(C)(C)N(C)C(=O)c1sc(-c2cccnc2)nc1C [Compound 45] | ≥ 70%
40 | 0.91 | – | CN(C)C(=O)c1cnc(-c2cccnc2)s1 [Compound 46] | ≥ 70%
41 | 1.41 | – | Cc1nc(-c2cccnc2)sc1C(=O)N(C)C(C)(C)C#N [Compound 47] | ≥ 70%
42 | 1.27 | – | Cc1nc(-c2cccnc2)sc1C(=O)NC(C)C1=NOCCO1 (stereo not drawn) [Compound 49] | ≥ 70%
43 | 0.8 | – | Cc1nc(-c2cccnc2)sc1C(=O)NCC1COCCO1 (stereo not drawn) [Compound 50] | ≥ 70%
44 | 1.3 | – | COC(=O)C1(NC(=O)c2sc(-c3cccnc3)nc2C)CC1 [Compound 51] | ≥ 70%
45 | 1.48 | – | Cc1nc(-c2cccnc2)sc1C(=O)NC(C)(C)C#N [Compound 52] | ≥ 70%
46 | 1.11 | – | Cc1nc(-c2cccnc2)sc1C(=O)NCCF [Compound 53] | ≥ 70%

Row | chromatographic logP [1] | logP (HCOOH) [1] | SMILES | pest or weed control at 500 g/ha [2]
47 | 1.16 | – | Cc1nc(-c2cccnc2)sc1C(=O)N[C@H]1C[C@@H]1F [Compound 54] | ≥ 70%
48 | 1.03 | – | CCNC(=O)c1cnc(-c2cccnc2)s1 [Compound 55] | ≥ 70%
49 | 1.68 | – | CSC[C@H](C)NC(=O)c1sc(-c2cccnc2)nc1C [Compound 56] | ≥ 70%
50 | 1.34 | – | Cc1nc(-c2cccnc2)sc1C(=O)NCC(F)F [Compound 57] | ≥ 70%
51 | 2.77 | – | Cc1nc(-c2cccnc2)sc1C(=O)N(CC(F)(F)F)C(=O)C1(F)CC1 [Compound 58] | ≥ 70%
52 | 0.62 | – | CNC(=O)c1cnc(-c2cccnc2)s1 [Compound 59] | ≥ 70%
53 | 1.14 | – | Cc1nc(-c2cccnc2)sc1C(=O)NCc1ccon1 [Compound 60] | ≥ 70%
54 | 1.23 | – | CCN(C)C(=O)c1cnc(-c2cccnc2)s1 [Compound 61] | ≥ 70%
55 | 1.34 | – | Cc1nc(-c2cccnc2)sc1C(=O)NCC1OCC(C)O1 (stereo not drawn) [Compound 62] | ≥ 70%
56 | 1.85 | – | Cc1nc(-c2cccnc2)sc1C(=O)NC(C#N)C(C)C (stereo not drawn) [Compound 63] | ≥ 70%
57 | – | 1.57 | Cc1nc(-c2cccnc2)sc1C(=O)NC(C#N)C(C)C (stereo not drawn) [Compound 64] | –
58 | 1.45 | – | COC(OC)C(C)NC(=O)c1sc(-c2cccnc2)nc1C (stereo not drawn) [Compound 65] | ≥ 70%
59 | 1.2 | – | Cc1nc(-c2cccnc2)sc1C(=O)NC1(C#N)CC1 [Compound 66] | ≥ 70%
60 | 1.46 | – | CCN(CC)C(=O)c1cnc(-c2cccnc2)s1 [Compound 67] | ≥ 70%
61 | – | 1.65 | CSC[C@H](C)NC(=O)c1sc(-c2cccnc2)nc1C [Compound 68] | –
62 | 2.06 | – | COCN(CC(F)(F)F)C(=O)c1sc(-c2cccnc2)nc1C [Compound 69] | ≥ 70%
63 | – | 1.13 | Cc1nc(-c2cccnc2)sc1C(=O)NCC(C)F (stereo not drawn) [Compound 76] | –
64 | 2.72 | – | Cc1nc(-c2cncc(Cl)c2)sc1C(=O)N(C)CC(F)(F)F [Preparation Example 2] | –
65 | 0.49 | – | CON(C)C(=O)c1cc(-c2cccnc2)nn1C [Preparation Example 6] | –
66 | 1.93 | – | CCOC(=O)c1cnc(-c2cccnc2)s1 [ethyl 2-pyridin-3-ylthiazole-5-carboxylate] | –
67 | 1.41 | – | CCOC(=O)c1nnc(-c2cccnc2)s1 [ethyl 5-pyridin-3-yl[1,3,4]thiadiazole-2-carboxylate] | –
